Measured values as given in publication PMC9425435, “Antiviral Profiling of C-18- or C-19-Functionalized Semisynthetic Abietane Diterpenoids” (Journal of Natural Products, 2022).
Where two headings read alike, the source gives them in different places. Marks after values point to notes of the source that are not given here.

Tests used:
[1] = system: CHIKV (Chikungunya virus); assay: End-point titration technique (EPTT), viral titer reduction factor, CHIKV in Vero E6; format: cell-based; settings: for Rf (reduction factor of the viral titer): Vero E6, 10TCID50, EPTT
[2] = system: HHV-1, 29R strain; format: cell-based, human Alpha herpesvirus type 1
[3] = system: BHK-21 cells; assay: Cytotoxicity CC100 in BHK-21 cells (6 days)
[4] = system: DENV-2 (Dengue virus type 2); assay: Plaque reduction assay (PFU), DENV-2 in BHK21; format: cell-based; settings: for % inhibition (PFU): DENV-2, BHK21, PFU/well 150 ± 25
[5] = system: Vero-E6 cells; assay: Cytotoxicity CC100 in Vero-E6 cells (72 h); settings: for CC100 (100% cytotoxic concentration): Vero-E6 cells, 72h; for Cytostatic compounds (asterisk at the label): Table 1 footnote mark
[6] = system: ZIKV (Zika virus); assay: Plaque reduction assay (PFU), ZIKV in Vero E6; format: cell-based; settings: ZIKV, Vero E6, PFU/well 150 ± 25
[7] = system: ZIKV (Zika virus); assay: End-point titration technique (EPTT), cytopathic effect inhibition, ZIKV in Vero E6; format: cell-based; settings: Vero E6, 10TCID50, EPTT
[8] = system: DENV-2 (Dengue virus type 2); assay: End-point titration technique (EPTT), cytopathic effect inhibition, DENV-2 in Vero E6; format: cell-based; settings: DENV-2, Vero E6, 10TCID50, EPTT

Row | Molecule | Rf (reduction factor of the viral titer) ([2]; Vero E6, 10TCID50, EPTT) | CC100 (100% cytotoxic concentration) [3] | CC100 (100% cytotoxic concentration) [5] | % inhibition (PFU) [6] | further results
1 | CC(C)c1cc2c(cc1O)[C@@]1(C)CCCC(C)(C)[C@@H]1CC2 [Compound 5, (+)-ferruginol] | not active | >50 µg/mL | >50 µg/mL | 38 ± 15% | Rf (reduction factor of the viral titer) [1]: 10^2; % inhibition (PFU) [4]: 28 ± 10%
2 | COC(=O)[C@]1(C)CCC[C@]2(C)c3ccc(C(C)C)cc3CC[C@@H]12 [Compound 12, methyl dehydroabietate] | – | 50 µg/mL | >50 µg/mL | 25 ± 10% | inhibition ECytop (inhibitory cytopathic effect compared to the infection control) [7]: +
3 | CC(C)c1ccc2c(c1)CC[C@H]1C(C)(C(=O)O)CCC[C@]21C (some centres unmarked) [Compound 13] | – | 50 µg/mL | 50 µg/mL | 19 ± 12% | inhibition ECytop (inhibitory cytopathic effect compared to the infection control) [8]: +; Cytostatic compounds (asterisk at the label) [5]: 13*
4 | CC(C)c1ccc2c(c1)CC[C@H]1C(C)(CO)CCC[C@]21C (some centres unmarked) [Compound 14] | not active | >50 µg/mL | >50 µg/mL | 37 ± 15% | Rf (reduction factor of the viral titer) [1]: 10^2; % inhibition (PFU) [4]: 30 ± 10%
5 | COC(=O)[C@]1(C)CCC[C@]2(C)c3cc(C(C)=O)c(C(C)C)cc3CC[C@@H]12 [Compound 15a] | – | 25 µg/mL | >50 µg/mL | – | –
6 | COC(=O)[C@@]1(C)CCC[C@]2(C)c3cc(C(C)=O)c(C(C)C)cc3CC[C@@H]12 [Compound 15b] | – | 50 µg/mL | >50 µg/mL | 29 ± 14% | % inhibition (PFU) [4]: 68 ± 20%
7 | COC(=O)[C@]1(C)CCC[C@]2(C)c3cc(OC(C)=O)c(C(C)C)cc3CC[C@@H]12 [Compound 16a] | – | 50 µg/mL | 50 µg/mL | 22 ± 13% | Rf (reduction factor of the viral titer) [1]: 10^2; inhibition ECytop (inhibitory cytopathic effect compared to the infection control) [7]: +
8 | COC(=O)[C@@]1(C)CCC[C@]2(C)c3cc(OC(C)=O)c(C(C)C)cc3CC[C@@H]12 [Compound 16b] | not active | 25 µg/mL | 25 µg/mL | 29 ± 9% | inhibition ECytop (inhibitory cytopathic effect compared to the infection control) [8]: +; inhibition ECytop (inhibitory cytopathic effect compared to the infection control) [7]: +
9 | COC(=O)[C@]1(C)CCC[C@]2(C)c3cc(OC(C)=O)c(C(C)C)cc3C(=O)C[C@@H]12 [Compound 17a] | – | 25 µg/mL | 25 µg/mL | – | –
10 | COC(=O)[C@@]1(C)CCC[C@]2(C)c3cc(OC(C)=O)c(C(C)C)cc3C(=O)C[C@@H]12 [Compound 17b] | not active | 25 µg/mL | 50 µg/mL | – | inhibition ECytop (inhibitory cytopathic effect compared to the infection control) [7]: +
11 | COC(=O)[C@]1(C)CCC[C@]2(C)c3cc(O)c(C(C)C)cc3CC[C@@H]12 [Compound 18a] | – | 25 µg/mL | 50 µg/mL | – | –
12 | COC(=O)[C@@]1(C)CCC[C@]2(C)c3cc(O)c(C(C)C)cc3CC[C@@H]12 [Compound 18b] | not active | 50 µg/mL | >50 µg/mL | 48 ± 12% | Rf (reduction factor of the viral titer) [1]: 10^2; % inhibition (PFU) [4]: 51 ± 8%
13 | CC(C)c1cc2c(cc1O)[C@@]1(C)CCC[C@@](C)(C(=O)O)[C@@H]1CC2 [Compound 19a, 12-hydroxydehydroabietic acid] | – | 12.5 µg/mL | 25 µg/mL | – | –
14 | CC(C)c1cc2c(cc1O)[C@@]1(C)CCC[C@](C)(C(=O)O)[C@@H]1CC2 [Compound 19b, lambertic acid] | – | >50 µg/mL | >50 µg/mL | 27 ± 17% | % inhibition (PFU) [4]: 35 ± 10%; inhibition ECytop (inhibitory cytopathic effect compared to the infection control) [7]: +
15 | CC(C)c1cc2c(cc1O)[C@@]1(C)CCC[C@@](C)(CO)[C@@H]1CC2 [Compound 20a, 18-hydroxyferruginol] | – | 50 µg/mL | 50 µg/mL | 19 ± 11% | Rf (reduction factor of the viral titer) [1]: 10^2; % inhibition (PFU) [4]: 25 ± 10%; Cytostatic effect [5]: cytostatic; Cytostatic compounds (asterisk at the label) [5]: 20a*
16 | CC(C)c1cc2c(cc1O)[C@@]1(C)CCC[C@](C)(CO)[C@@H]1CC2 [Compound 20b, 19-hydroxyferruginol] | – | 12.5 µg/mL | 25 µg/mL | – | Rf (reduction factor of the viral titer) [1]: 10^2; inhibition ECytop (inhibitory cytopathic effect compared to the infection control) [7]: +
17 | CC(C)c1cc2c(cc1O)[C@@]1(C)CCC[C@@](C)(CO)[C@@H]1CC2=O [Compound 21a] | – | 12.5 µg/mL | 25 µg/mL | 27 ± 12% | Rf (reduction factor of the viral titer) [1]: 10^2; inhibition ECytop (inhibitory cytopathic effect compared to the infection control) [8]: +
18 | CC(C)c1cc2c(cc1O)[C@@]1(C)CCC[C@](C)(CO)[C@@H]1CC2=O [Compound 21b] | – | 25 µg/mL | >25 µg/mL | – | –
19 | COC(=O)[C@]1(C)CCC[C@]2(C)c3cc(O)c(C(C)C)cc3C(=O)C[C@@H]12 [Compound 22a] | – | 25 µg/mL | 50 µg/mL | – | –
20 | COC(=O)[C@@]1(C)CCC[C@]2(C)c3cc(O)c(C(C)C)cc3C(=O)C[C@@H]12 [Compound 22b] | not active | 12.5 µg/mL | 25 µg/mL | – | inhibition ECytop (inhibitory cytopathic effect compared to the infection control) [8]: +
21 | CC(C)c1cc2c(cc1O)[C@@]1(C)CCC[C@@](C)(C(=O)O)[C@@H]1CC2=O [Compound 23a, liquiditerpenoic acid A] | – | 50 µg/mL | >50 µg/mL | – | –
22 | CC(C)c1cc2c(cc1O)[C@@]1(C)CCC[C@](C)(C(=O)O)[C@@H]1CC2=O [Compound 23b] | not active | 12.5 µg/mL | 25 µg/mL | – | –
23 | COC(=O)[C@]1(C)CCC[C@]2(C)c3ccc(C(C)C)c(O)c3CC[C@@H]12 [Compound 24, methyl 14-hydroxy-dehydroabietate] | – | >25 µg/mL | >25 µg/mL | 51 ± 15% | Rf (reduction factor of the viral titer) [1]: 10^2; % inhibition (PFU) [4]: 48 ± 9%; Most active concentration, in μM ([4]; DENV-2 PFU assay, conversion of 3.1 μg/mL): ca. 9.3 μM
24 | CC(C)c1ccc2c(c1O)CC[C@H]1[C@](C)(C(=O)O)CCC[C@]21C [Compound 25] | not active | >25 µg/mL | >25 µg/mL | 20 ± 09% | –
25 | CC(C)c1ccc2c(c1O)CC[C@H]1[C@](C)(CO)CCC[C@]21C [Compound 26] | not active | >25 µg/mL | >25 µg/mL | – | inhibition ECytop (inhibitory cytopathic effect compared to the infection control) [7]: +
26 | dextran sulfate [DS, reference compound] | – | – | >50 µg/mL | – | Nontoxic concentration that showed higher viral reduction factor ([2]; Vero E6, 10TCID50, EPTT): 5 µg/mL
27 | heparin [reference compound] | – | – | – | – | Nontoxic concentration that showed higher viral reduction factor ([1]; Vero E6, EPTT, heparin): 10 U.I.; Nontoxic concentration that showed higher viral reduction factor ([2]; Vero E6, EPTT, heparin): 10 U.I.; CC100 (100% cytotoxic concentration) ([5]; heparin): >100 U.I
